Assay results taken from patent US12435087B2, “Modulators of DCN-1 and methods of use thereof” (Cellarity, Inc., priority 2023, dated 2025).
Where two headings read alike, the source gives them in different places.

Key:
[1] = target: DCN1 (DCUND1) protein PONY domain (Homo sapiens (Human), UniProt Q96GG9); test: TR-FRET assay (binding to DCN-1, displacement of FAM-labeled probe)
Procedure, shortened: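 Compounds read at 1, 5 and 24 h, 0.1% final DMSO, by TR-FRET between terbium-streptavidin on biotinylated DCN1 PONY domain (E. coli) and a FAM-tagged non-covalent inhibitor probe. Two setups used, 5 nM protein with 20 nM labelled probe, or 0.31 nM protein with 100 nM labelled plus 800 nM unlabelled probe; buffer had TritonX and 200 mM NaCl. % activity relative to high (with probe) and low (without probe) controls.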

DCN1 protein = DCN1 protein (Homo sapiens (Human), UniProt Q96GG9); test: Intact protein MS analysis with the RapidFire-TOF system (covalent adduct formation); assay type: binding; settings: 400 nM DCN1, incubated at room temperature for 3 hours
Chain of DCN1 protein (Q96GG9 whole entry): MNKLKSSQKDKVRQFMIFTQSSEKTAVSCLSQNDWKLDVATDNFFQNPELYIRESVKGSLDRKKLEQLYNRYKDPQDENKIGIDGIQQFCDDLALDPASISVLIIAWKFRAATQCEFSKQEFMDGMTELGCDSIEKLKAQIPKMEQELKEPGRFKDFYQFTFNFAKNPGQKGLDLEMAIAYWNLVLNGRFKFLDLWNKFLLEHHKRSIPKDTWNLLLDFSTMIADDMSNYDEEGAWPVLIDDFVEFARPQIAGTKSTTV
Procedure, shortened: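 Tag-free His-TEV-DCN1 expressed in E. coli at 400 nM in 25 mM Tris-HCl, 200 mM NaCl, 1 mM DTT, incubated with 11 compound concentrations at room temperature for 3 h unless otherwise specified. Quenched with 0.2% formic acid; intact-protein RapidFire Q-TOF MS, deconvoluted to detect parent and compound-adduct masses.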

[2] = 24 hr after treatment with compound, read-out: TR FRET IC50 24 hr

Chain of DCN1 (DCUND1) protein PONY domain (Q96GG9 60-248): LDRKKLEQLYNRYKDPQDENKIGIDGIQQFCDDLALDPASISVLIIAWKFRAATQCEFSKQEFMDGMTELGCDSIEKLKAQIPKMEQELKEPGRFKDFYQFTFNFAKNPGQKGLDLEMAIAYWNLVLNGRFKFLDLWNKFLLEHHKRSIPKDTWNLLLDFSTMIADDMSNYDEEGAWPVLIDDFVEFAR

For C/C=C(\CN1CCN(C2COC2)CC1)C(=O)Nc1cccc([C@@H]2c3cnn(-c4ccccc4)c3N(CC)C(=O)[C@H]2NC(=O)c2csc(C(F)(F)F)n2)c1 [Compound I-234, N-((4R,5S)-7-ethyl-4-(3-((E)-2-((4-(oxetan-3-yl)piperazin-1-yl)methyl)but-2-enamido)phenyl)-6-oxo-1-phenyl-4,5,6,7-tetrahydro-1H-pyrazolo[3,4-b]pyridin-5-yl)-2-(trifluoromethyl)thiazole-4-carboxamide], the IC50 [1, 2] was at most 200 nM, the IC50 ([1]; TR FRET IC50 1 hr (nM), 1 hr after treatment with compound) was at most 200 nM and the Emax (DCN1 protein) was 80 to 100%.

With C=C(CN1CCOCC1)C(=O)Nc1cccc([C@@H]2c3c(C)nn(-c4ccccc4)c3N(CC)C(=O)[C@H]2NC(=O)c2cccc(C(F)(F)F)c2)c1 [Compound I-2, N-((4R,5S)-7-ethyl-3-methyl-4-(3-(2-(morpholinomethyl)acrylamido)phenyl)-6-oxo-1-phenyl-4,5,6,7-tetrahydro-1H-pyrazolo[3,4-b]pyridin-5-yl)-3-(trifluoromethyl)benzamide] the IC50 [1, 2] was at most 200 nM, the IC50 ([1]; read-out: TR FRET IC50 1 hr, 1 hr after treatment with compound) was at most 200 nM and the Emax (DCN1 protein) was 80 to 100%.
